Source: PubChem BioAssay AID1963980 (Molecular Pharmacology Branch, DTP, NCI, 2024)

Test system: 475296-252-R-J1-PDC spheroid viability
Test: Anticancer human tumor 475296-252-R-J1-PDC patient-derived rectal carcinoma cell line growth inhibition [PI3K]
Conditions: spheroids with HUVEC and MSC; for viability, T/C: stronger effect = lower value
In short: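 Viability of mixed-cell spheroids was determined after exposure to pairwise combinations, one partner being inavolisib, alpelisib, duvelisib or copanlisib. Highest tested concentration matched clinical Cmax where known and 10 microM where not, descending in half-log steps.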

[1] = curve of first compound, second compound 0.0316 µM
[2] = curve of first compound, second compound 0.1 µM
[3] = curve of first compound, second compound 0.316 µM
[4] = curve of first compound, second compound 1 µM
[5] = second compound 0.0316 µM, first compound 0.0316 µM
[6] = second compound 0.0316 µM, first compound 0.1 µM
[7] = second compound 0.0316 µM, first compound 0.316 µM
[8] = second compound 0.0316 µM, first compound 1 µM
[9] = second compound 0.0316 µM, first compound 3.16 µM
[10] = second compound 0.0316 µM, first compound 10 µM
[11] = second compound 0.1 µM, first compound 0.0316 µM
[12] = second compound 0.1 µM, first compound 0.1 µM
[13] = second compound 0.1 µM, first compound 0.316 µM
[14] = second compound 0.1 µM, first compound 1 µM
[15] = second compound 0.1 µM, first compound 3.16 µM
[16] = second compound 0.1 µM, first compound 10 µM
[17] = second compound 0.316 µM, first compound 0.0316 µM
[18] = second compound 0.316 µM, first compound 0.1 µM
[19] = second compound 0.316 µM, first compound 0.316 µM
[20] = second compound 0.316 µM, first compound 1 µM
[21] = second compound 0.316 µM, first compound 3.16 µM
[22] = second compound 0.316 µM, first compound 10 µM
[23] = second compound 1 µM, first compound 0.0316 µM
[24] = second compound 1 µM, first compound 0.1 µM
[25] = second compound 1 µM, first compound 0.316 µM
[26] = second compound 1 µM, first compound 1 µM
[27] = second compound 1 µM, first compound 3.16 µM
[28] = second compound 1 µM, first compound 10 µM
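Also: spheroids exposed to agents for seven days before readout.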

Cn1ncc(Cl)c1-c1cc(C(=O)NC(CN)Cc2cccc(F)c2)sc1Cl (stereo unspecified) + CC(Nc1ncnc2nc[nH]c12)c1cc2cccc(Cl)c2c(=O)n1-c1ccccc1
IC50 [1]: > 10 µM | IC50 [2]: > 10 µM | IC50 [3]: > 10 µM | IC50 [4]: > 10 µM | IC50 (curve of first compound, second compound 3.16 µM): > 10 µM | IC50 (curve of first compound, second compound 10 µM): > 10 µM | viability, T/C [5]: 101% | viability, T/C [6]: 83.3% | viability, T/C [7]: 60.1% | viability, T/C [8]: 71.5% | viability, T/C [9]: 71.7% | viability, T/C [10]: 61.5% | viability, T/C [11]: 95.7% | viability, T/C [12]: 80% | viability, T/C [13]: 64.9% | viability, T/C [14]: 63.6% | viability, T/C [15]: 70.2% | viability, T/C [16]: 57% | viability, T/C [17]: 90.5% | viability, T/C [18]: 77.6% | viability, T/C [19]: 56.5% | viability, T/C [20]: 65.4% | viability, T/C [21]: 59.8% | viability, T/C [22]: 57.6% | viability, T/C [23]: 87.5% | viability, T/C [24]: 74.7% | viability, T/C [25]: 58.2% | viability, T/C [26]: 60.5% | viability, T/C [27]: 55.6% | viability, T/C [28]: 62.1% | viability, T/C (second compound 3.16 µM, first compound 0.0316 µM): 87% | viability, T/C (second compound 3.16 µM, first compound 0.1 µM): 80.4% | viability, T/C (second compound 3.16 µM, first compound 0.316 µM): 51.4% | viability, T/C (second compound 3.16 µM, first compound 1 µM): 50.9% | viability, T/C (second compound 3.16 µM, first compound 3.16 µM): 60.7% | viability, T/C (second compound 3.16 µM, first compound 10 µM): 52.1% | viability, T/C (second compound 10 µM, first compound 0.0316 µM): 92.3% | viability, T/C (second compound 10 µM, first compound 0.1 µM): 77% | viability, T/C (second compound 10 µM, first compound 0.316 µM): 60.5% | viability, T/C (second compound 10 µM, first compound 1 µM): 58.8% | viability, T/C (second compound 10 µM, first compound 3.16 µM): 62.8% | viability, T/C (second compound 10 µM, first compound 10 µM): 46.7%

CC1(C)CCC(CN2CCN(c3ccc(C(=O)NS(=O)(=O)c4ccc(NCC5CCOCC5)c([N+](=O)[O-])c4)c(Oc4cnc5[nH]ccc5c4)c3)CC2)=C(c2ccc(Cl)cc2)C1 + CC(Nc1ccc2c(c1)OCCn1cc(N3C(=O)OCC3C(F)F)nc1-2)C(N)=O
IC50 (curve of first compound, second compound 0.00316 µM): > 10 µM | IC50 (curve of first compound, second compound 0.01 µM): > 10 µM | IC50 [1]: > 10 µM | IC50 [2]: > 10 µM | IC50 [3]: > 10 µM | IC50 [4]: > 10 µM | viability, T/C (second compound 0.00316 µM, first compound 0.0316 µM): 109% | viability, T/C (second compound 0.00316 µM, first compound 0.1 µM): 94.4% | viability, T/C (second compound 0.00316 µM, first compound 0.316 µM): 92.3% | viability, T/C (second compound 0.00316 µM, first compound 1 µM): 87.3% | viability, T/C (second compound 0.00316 µM, first compound 3.16 µM): 86.3% | viability, T/C (second compound 0.00316 µM, first compound 10 µM): 84.2% | viability, T/C (second compound 0.01 µM, first compound 0.0316 µM): 92.4% | viability, T/C (second compound 0.01 µM, first compound 0.1 µM): 85.5% | viability, T/C (second compound 0.01 µM, first compound 0.316 µM): 101% | viability, T/C (second compound 0.01 µM, first compound 1 µM): 83.2% | viability, T/C (second compound 0.01 µM, first compound 3.16 µM): 93% | viability, T/C (second compound 0.01 µM, first compound 10 µM): 74.5% | viability, T/C [5]: 95.5% | viability, T/C [6]: 96% | viability, T/C [7]: 94.3% | viability, T/C [8]: 96.2% | viability, T/C [9]: 96.9% | viability, T/C [10]: 77.2% | viability, T/C [11]: 87.7% | viability, T/C [12]: 96.1% | viability, T/C [13]: 87% | viability, T/C [14]: 97.1% | viability, T/C [15]: 90.4% | viability, T/C [16]: 73.7% | viability, T/C [17]: 85.2% | viability, T/C [18]: 83.8% | viability, T/C [19]: 93.9% | viability, T/C [20]: 88.3% | viability, T/C [21]: 81.2% | viability, T/C [22]: 74.1% | viability, T/C [23]: 93.7% | viability, T/C [24]: 82.3% | viability, T/C [25]: 85.8% | viability, T/C [26]: 89.6% | viability, T/C [27]: 82.6% | viability, T/C [28]: 72.8%

CCN1CCN(Cc2ccc(Nc3ncc(F)c(-c4cc(F)c5nc(C)n(C(C)C)c5c4)n3)nc2)CC1
viability, T/C (compound 0.00316 µM): 101% [middle of 4 runs] | viability, T/C (compound 0.01 µM): 100% [middle of 4 runs] | viability, T/C (compound 0.0316 µM): 95.7% [middle of 4 runs] | viability, T/C (compound 0.1 µM): 100% [middle of 4 runs] | viability, T/C (compound 0.316 µM): 101% [middle of 4 runs] | viability, T/C (compound 1 µM): 92.4% [middle of 4 runs] | IC50 (curve of compound): > 1 µM
